From ChEMBL document CHEMBL1148219, “Cytotoxic sesquiterpene lactones from Eupatorium lindleyanum” (J Nat Prod, 2004) come the findings set out here.

Usually IC50 stands for the concentration that inhibits the measured activity by half. High values mean weaker potency, low ones greater potency.

One assay concerns P388. In words: Cytotoxicity against mouse P388 cells after 24 hrs. Type of assay: functional, cell-based. Conditions: for IC50: P388, 24 h.
The next assay relates to A549. In words: Cytotoxicity against human A549 cells after 24 hrs. Type of assay: functional, cell-based. The conditions noted are these: for IC50: A549, 24 h.

Values after ≈ are worked out from the molar mass of the structure shown. Active and inactive are the calls of the source. No cut-off for these calls is given here.

As to `C=C1C(=O)O[C@@H]2[C@H]3C(C)=C[C@@H](O)[C@H]3[C@@](O)(CO)C[C@@H](OC(=O)/C(C)=C/CO)[C@@H]12`, the result in the assay on P388 and in the assay on A549 was inactive.

With `C=C1C(=O)O[C@H]2[C@H]1[C@H](OC(=O)/C(C)=C/CO)C[C@](O)(CO)[C@@H]1[C@H](O)[C@H]3O[C@@]3(C)[C@H]21`, the result with P388 and in the assay with A549 was inactive.

Take `C=C1C(=O)O[C@H]2[C@H]1[C@H](OC(=O)/C(C)=C/CO)CC(=C)[C@@H]1C=C[C@@](C)(O)[C@H]21` [EUPALINILIDE B]: the IC50 came to 0.21 µg/mL (≈ 0.583 µM) in the assay with P388 and 0.75 µg/mL (≈ 2.08 µM) with A549.

For the molecule `C=C1C(=O)O[C@@H]2[C@H]3C(C)=C[C@H]4OC[C@@](O)(C[C@@H](OC(=O)/C(C)=C/CO)[C@@H]12)[C@@H]34` [EUPALINILIDE C], the figures for the IC50 in the assay on P388 and in the assay with A549 were 1.2 µg/mL (≈ 3.19 µM) and 11 µg/mL (≈ 29.2 µM), respectively.

Take `C=C1C(=O)O[C@@H]2[C@H]3C(C)=C[C@@H](O)[C@H]3[C@@](O)(CCl)C[C@@H](OC(=O)/C(C)=C/C)[C@@H]12` [EUPALINILIDE E]: the result in the assay with P388 was inactive. This molecule displayed an IC50 in the assay with A549 of 0.028 µg/mL (≈ 0.0706 µM).

Molecule `COC(=O)C1=CC[C@@]23CC[C@@H]([C@@](C)(/C=C/C=C(\C)C(=O)O)OC2=O)[C@@]3(OC(C)=O)CC1` [PSEUDOLARIC ACID B] gave an IC50 in the assay with A549 of 0.86 µg/mL (≈ 1.99 µM).
